According to patent US6858647B2, “Retinoid compounds suited for antibacterial applications” (Galderma Research & Development S.N.C., priority 2000, dated 2005):
In brackets after ≈: the same amount, converted by molar mass.

Tested on: Staphylococcus aureus CIP52.1
Assay: Minimum inhibitory concentration (MIC), NCCLS dilution antimicrobial susceptibility test
Assay type: cell-based
Conditions: Staphylococcus aureus, CIP52, Table II, Example 1; mean of at least three tests; bacteriostatic effect; read-out: MIC RESULTS MEAN
Text: The bacterium Staphylococcus aureus CIP52.1 may be used in order to determine for each test compound the minimum inhibitory concentration for the bacterium, or MIC, expressed in μM.
The technique employed to determine the minimum inhibitory concentration or MIC was that described in the publication entitled “National committee for clinical laboratory standards” Vol. 13, No. 25, December 1993; Methods for dilution antimicrobial susceptibility tests for bacteria that grow aerobically-third edition, approved standard”. This minimum inhibitory concentration gives an indication as to the bacteriostatic effect of the test compounds, i.e., the capacity of these compounds to stop the proliferation of the bacterium.
Each compound of the invention was tested at least three times. The average of the test results was calculated, along with the standard deviation. The reference compound used was gentamycin.
The technique employed to determine the MIC values was the same as that described in Example 1.
Each compound of the invention and each comparative example taken from the Pierre Fabre patent application No. FR-2,736,548 was tested at least three times. The mean of the test results was calculated, along with the standard deviation. The reference compound used was gentamycin.

Row | MIC | SMILES
1 | 1.66 µM (≈ 0.585 µg/mL) | Cc1ccc(-c2ccc(C)cc2C=CC#Cc2ccc(C(=O)O)cc2)cc1 [Compound 8, 4-[4-(4,4′-Dimethylbiphenyl-2-yl)but-3-en-1-ynyl]benzoic acid]
2 | 3.33 µM (≈ 1.58 µg/mL) | CCCCCCOc1ccc(C(=O)Nc2ccc(C(=O)O)cc2)cc1C12CC3CC(CC(C3)C1)C2 [Compound 26, 4-(3-Adamantan-1-yl-4-hexyloxybenzoylamino)benzoic acid]
3 | 1.25 µM (≈ 0.516 µg/mL) | Cc1cc(O)c(C23CC4CC(CC(C4)C2)C3)cc1-c1ccc2cc(C(=O)O)ccc2c1 [Compound 4, 6-[2-Methyl-4-hydroxy-5-(1-adamantyl)phenyl]-2-naphthoic acid]
4 | 2.08 µM (≈ 0.733 µg/mL) | Cc1ccc(-c2c(C)cccc2C=CC#Cc2ccc(C(=O)O)cc2)cc1 [Compound 12, 4-[4-(6,4′-Dimethylbiphenyl-2-yl)but-3-en-1-ynyl]benzoic acid]
5 | 1.25 µM (≈ 0.443 µg/mL) | Cc1ccc(-c2ccccc2C=CC#Cc2ccc(C(=O)O)c(O)c2)cc1 [Compound 6, 2-Hydroxy-4-[4-(4′-methylbiphenyl-2-yl)but-3-en-1-ynyl]benzoic acid]
6 | 2.5 µM (≈ 1.19 µg/mL) | COCCOCOc1ccc(C#Cc2ccc(C(=O)O)c(O)c2)cc1C12CC3CC(CC(C3)C1)C2 [Compound 18, 4-[3-Adamantan-1-yl-4-(2-methoxyethoxymethoxy)-phenylethynyl]-2-hydroxybenzoic acid]
7 | 5 µM (≈ 1.87 µg/mL) | CC1(C)CCC(C)(C)c2cc(Oc3ccc4cc(C(N)=O)ccc4c3)ccc21 [Compound 40, 6-(5,5,8,8-Tetramethyl-5,6,7,8-tetrahydronaphthalen-2-yloxy)naphthalene-2-carboxylic acid amide]
8 | 2.5 µM (≈ 1.3 µg/mL) | CCCCCCCCCON=C(C(=O)Nc1ccc(C(=O)O)cc1)c1ccc2c(c1)C(C)(C)CCC2(C)C [Compound 17, 4-[2-Nonyloxyimino-2-(5,5,8,8-tetramethyl-5,6,7,8-tetrahydronaphthalen-2-yl)acetylamino]benzoic acid]
9 | 3.33 µM (≈ 1.29 µg/mL) | O=C(O)c1ccc2oc(-c3ccc(O)c(C45CC6CC(CC(C6)C4)C5)c3)cc2c1 [Compound 29, 2-(3-Adamantan-1-yl-4-hydroxyphenyl)benzofuran-5-carboxylic acid]
10 | 3.33 µM (≈ 1.46 µg/mL) | CCCCCCCCCC(C)(C)c1cc(C(=O)Nc2ccc(C(=O)O)cc2)ccc1OC [Compound 25, 4-[3-(1,1-Dimethyldecyl)-4-methoxybenzoylamino]-benzoic acid]
11 | 4.16 µM (≈ 2.04 µg/mL) | CCCCCCCC/C=C(\C(=O)Nc1ccc(C(=O)O)cc1)c1ccc2c(c1)C(C)(C)CCC2(C)C [Compound 36, 4-[(Z)-2-(5,6,7,8-tetrahydro-5,5,8,8-tetramethyl-2-naphthyl)-2-undecenamido]benzoic acid]
12 | 3.33 µM (≈ 1.25 µg/mL) | CC1(C)CCC(C)(C)c2cc3cc(-c4ccc(C(=O)O)c(O)c4)ccc3cc21 [Compound 28, 2-Hydroxy-4-(5,5,8,8-tetramethyl-5,6,7,8-tetrahydroanthracen-2-yl)benzoic acid]
13 | 2.5 µM (≈ 0.901 µg/mL) | CC1(C)CCC(C)(C)c2cc3cc(-c4ccc(CO)c(O)c4)ccc3cc21 [Compound 20, 2-Hydroxymethyl-5-(5,5,8,8-tetramethyl-5,6,7,8-tetrahydroanthracen-2-yl)phenol]
14 | 5 µM (≈ 2.46 µg/mL) | CCCCCCCON=C(C(=O)Nc1ccc(C(=O)O)cc1)c1ccc2c(c1)C(C)(C)CCC2(C)C [Compound 39, 4-[2-Heptyloxyimino-2-(5,5,8,8-tetramethyl-5,6,7,8-tetrahydronaphthalen-2-yl)acetylamino]-benzoic acid]
15 | 5 µM (≈ 2.01 µg/mL) | COc1cc(C)c(-c2cccc(C=CC(=O)O)c2)cc1C12CC3CC(CC(C3)C1)C2 [Compound 45, 3-(5′-Adamantan-1-yl-4′-methoxy-2′-methylbiphenyl-3-yl)acrylic acid]

Row | SMILES | MIC
16 | CCCCOC(c1ccc2c(c1)C(C)(C)CCC2(C)C)c1ccc2cc(C(=O)O)ccc2c1 (stereo not drawn) [Compound 24, 6-[Butoxy-(5,5,8,8-tetramethyl-5,6,7,8-tetrahydronaphthalen-2-yl)methyl]naphthalene-2-carboxylic acid] | 3.33 µM (≈ 1.48 µg/mL)

Same assay, conditions: Staphylococcus aureus, CIP52, read-out: MIC RESULTS MEAN

Row | SMILES | MIC
17 | Cc1cc2c(cc1[Se]C#Cc1ccc(C(=O)O)cc1)C(C)(C)CCC2(C)C [Compound 33, 4-(3,5,5,8,8-Pentamethyl-5,6,7,8-tetrahydronaphthalen-2-ylselanylethynyl)benzoic acid] | 3.33 µM (≈ 1.42 µg/mL)
18 | Cc1cc2c(cc1[Se]C#Cc1ccc(C(=O)O)c(O)c1)C(C)(C)CCC2(C)C [Compound 22, 2-Hydroxy-4-(3,5,5,8,8-pentamethyl-5,6,7,8-tetrahydronaphthalen-2-ylselanylethynyl)benzoic acid] | 2.5 µM (≈ 1.1 µg/mL)
19 | CC1(C)CCC(C)(C)c2cc([Se]C#Cc3ccc(C(=O)O)c(O)c3)ccc21 [Compound 42, 2-Hydroxy-4-(5,5,8,8-tetramethyl-5,6,7,8-tetrahydronaphthalen-2-ylselanylethynyl)benzoic acid] | 5 µM (≈ 2.14 µg/mL)

Same assay, conditions: Table II, Example 1; mean of at least three tests; bacteriostatic effect; read-out: MIC RESULTS MEAN

Row | MIC | SMILES
20 | 3.33 µM (≈ 1.28 µg/mL) | OCc1ccc2cc(-c3ccc(O)c(C45CC6CC(CC(C6)C4)C5)c3)ccc2c1 [Compound 27, 6-[3-(1-Adamantyl)-4-hydroxyphenyl]-2-napthylmethanol]
21 | 1.66 µM (≈ 0.652 µg/mL) | COc1ccc(C#Cc2cc(C(=O)O)cs2)cc1C12CC3CC(CC(C3)C1)C2 [Compound 7]
22 | 5.00 µM (≈ 2.38 µg/mL) | CC1(C)CCC(C)(C)c2cc(-c3cc(-c4ccc(C(=O)O)cc4)ccc3-c3cccc(O)c3)ccc21 [Compound 44, 3-Hydroxy-2′-(5,5,8,8-tetramethyl-5,6,7,8-tetrahydronaphthalen-2-yl) [1,1′,4′,1″]terphenyl-4″-carboxylic acid]
23 | 3.33 µM (≈ 1.73 µg/mL) | COCOc1ccccc1-c1ccc(-c2ccc(C(=O)O)cc2)cc1-c1ccc2c(c1)C(C)(C)CCC2(C)C [Compound 34, 2-Methoxymethoxy-2′-(5,5,8,8-tetramethyl-5,6,7,8-tetrahydronaphthalen-2-yl) [1,1′,4′1″]terphenyl-4″carboxylic acid]
24 | 5.00 µM (≈ 2.6 µg/mL) | COCOc1cc2c(cc1-c1cc(-c3ccc(C(=O)O)cc3)ccc1-c1ccccc1)C(C)(C)CCC2(C)C [Compound 43, 2′-(3-Methoxymethoxy-5,5,8,8-tetramethyl-5,6,7,8-tetrahydronaphthalen-2-yl) [1,1′,4′,1″]terphenyl-4″-carboxylic acid]
25 | 2.50 µM (≈ 1.23 µg/mL) | COc1cc2c(cc1-c1cc(-c3ccc(C(=O)O)cc3)ccc1-c1ccccc1)C(C)(C)CCC2(C)C [Compound 23, 2′-(3-Methoxy-5,5,8,8-tetramethyl-5,6,7,8-tetrahydronaphthalen-2-yl) [1,1′,4′,1″]terphenyl-4″-carboxylic acid]
26 | 5.00 µM (≈ 2.41 µg/mL) | COc1ccc(-c2ccc3cc(C(=O)NCCN(C)C)ccc3c2)cc1C12CC3CC(CC(C3)C1)C2 [Compound 41, (2-Dimethylaminoethyl)amide of 6-(3-adamantan-1-yl-4-methoxyphenyl)naphthalene-2-carboxylic acid]

Row | SMILES | MIC
27 | CCCOc1ccc(-c2ccc3c(c2)C(C)(C)CCC3(C)C)cc1-c1ccc(C(=O)O)cc1 [Compound 38, 2′-Propoxy-5′-(5,5,8,8-tetramethyl-5,6,7,8-tetrahydronaphthalen-2-yl)bipheny-1-4-carboxylic acid] | 4.16 µM (≈ 1.84 µg/mL)
28 | CC(CO)COc1ccc(C#Cc2ccc(C(=O)O)cc2)cc1C12CC3CC(CC(C3)C1)C2 (stereo not drawn) [Compound 19, 4-[[3-(1-Adamantyl)-4-[(2-methyl-3-hydroxypropyloxy)phenyl]ethynyl]]benzoic acid] | 2.50 µM (≈ 1.11 µg/mL)

Tested on: RAR receptor
Assay: Biological activity of RAR receptor antagonist / agonist type
Conditions: stated in words, no test described

Row | biological activity at RAR receptor (antagonist or agonist type) | SMILES
29 | RAR receptor agonist type | COc1ccc(C#Cc2cc(C(=O)O)cs2)cc1C12CC3CC(CC(C3)C1)C2 [Compound 7]
30 | RAR receptor antagonist type | COCOc1ccccc1-c1ccc(-c2ccc(C(=O)O)cc2)cc1-c1ccc2c(c1)C(C)(C)CCC2(C)C [Compound 34, 2-Methoxymethoxy-2′-(5,5,8,8-tetramethyl-5,6,7,8-tetrahydronaphthalen-2-yl) [1,1′,4′1″]terphenyl-4″carboxylic acid]
